In test [1] the target is T1, SIRT3 (Homo sapiens, UniProt Q9NTG7).
T1 sequence (Q9NTG7 102-399): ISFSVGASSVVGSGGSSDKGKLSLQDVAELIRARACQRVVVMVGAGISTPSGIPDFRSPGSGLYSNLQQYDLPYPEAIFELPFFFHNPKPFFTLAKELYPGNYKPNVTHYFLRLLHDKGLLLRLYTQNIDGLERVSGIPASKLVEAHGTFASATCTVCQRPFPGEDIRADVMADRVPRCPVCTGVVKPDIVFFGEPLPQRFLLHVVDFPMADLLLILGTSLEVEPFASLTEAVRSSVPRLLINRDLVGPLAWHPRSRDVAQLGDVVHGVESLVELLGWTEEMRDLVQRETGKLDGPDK
The test is described as follows: DARTS (pronase digestion, blot). Type of test: biochemical. Also noted: detected by blot. The conditions noted are these: protein lysate.

For test [2], the target named is T1, SIRT3. The test is described as follows: surface plasmon resonance. Also noted: SIRT3 protein used for SPR; PDB 4JT8 was only the docking model. The class given is binding. In general terms: In SPR one partner is held on a chip, and binding of the other changes the refractive index at the surface.

A word on the Kd: it is the equilibrium constant for the complex coming apart. Low readings indicate tighter binding, high ones weaker binding. Regarding `O=C(/C=C/c1ccc(O)c(O)c1)c1ccc(O)c(O)c1O` [okanin], at SIRT3 [1], the DARTS protection result is listed as “okanin treatment significantly enhanced SIRT3 resistance to pronase digestion in protein lysates”. On SIRT3 [2], the Kd came to 4.98 µM.

These data come from article PMC12466513, “Okanin Attenuates Mitochondrial Dysfunction and Apoptosis in UVA-Induced HaCaT Cells by Mitophagy Through SIRT3 Pathway” (Antioxidants, 2025).
